Where a SMILES comes first, the peptide text is derived from it. Bridges are numbered along the chain shown (N, C = ends). Roman numbers before positions name the chains, in order. [ ]: non-standard residue; d: D form. Hyp = O=C(O)[C@@H]1C[C@@H](O)CN1; NMeDab = CN[C@@H](CCN)C(=O)O; dDab = NCC[C@@H](N)C(=O)O; Orn = NCCC[C@H](N)C(=O)O; Dab = NCC[C@H](N)C(=O)O; dAze = O=C(O)[C@H]1CCN1
Tests used:
Assay type in all cases: cell-based
[1] = test system: Acinetobacter baumannii 872842; settings: 872842
[2] = test system: Escherichia coli 926415; settings: 926415
[3] = test system: Escherichia coli ATCC 25922; settings: ATCC 25922
Procedure, shortened: (§1)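 Antibacterial activity is measured as MIC (μg/mL) by standard CLSI microdilution. Inocula of about 10^6 CFU/mL in MH-II broth meet two-fold peptide dilutions in medium with 0.002% Polysorbate 80, and growth is scored visually after 18-20 hours at 35° C.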

[4] = test system: Acinetobacter baumannii DSM 30008; settings: DSM 30008
Procedure, shortened: as §1

[5] = test system: Pseudomonas aeruginosa ATCC 27853; settings: ATCC 27853
Procedure, shortened: as §1

[6] = test system: Klebsiella pneumoniae SSI #3010; settings: SSI #3010
Procedure, shortened: as §1

[7] = test system: Klebsiella pneumoniae 968733; settings: 968733
[8] = test system: human red blood cells (hRBC); test: Hemolysis of human red blood cells; settings: red cells of human, 1 h, 100
Procedure, shortened: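 Fresh human red blood cells are washed in PBS, then shaken with peptide (100 μg/mL) at 37° C. for 1 h, final erythrocyte density about 0.9×10^9 cells/mL. After centrifugation, diluted supernatants are read at 540 nm against buffer (0%) and Triton X-100 (100%) lysis controls.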

Acinetobacter baumannii 872842 MIC [1] [µg/mL]	Escherichia coli 926415 MIC [2] [µg/mL]	Escherichia coli ATCC 25922 MIC [3] [µg/mL]	Acinetobacter baumannii DSM 30008 MIC [4] [µg/mL]	Pseudomonas aeruginosa ATCC 27853 MIC [5] [µg/mL]	Klebsiella pneumoniae SSI #3010 MIC [6] [µg/mL]	Klebsiella pneumoniae 968733 MIC [7] [µg/mL]	Compound	Hemolysis at 100 μg/mL [8] [%]
1	1	0.125	0.5	0.5	0.25	2	CC(C)C[C@@H]1NC(=O)[C@@H](CC(C)C)NC(=O)[C@H](CCN)NC(=O)[C@@H](NC(=O)[C@H](CCN)NC(=O)[C@@H](NC(=O)[C@H](CCN)NC(=O)CC[C@@H]2NC(=O)[C@H](CCN)NC(=O)[C@H](Cc3ccc(O)cc3)NC(=O)[C@H](CO)NC(=O)[C@H](CC(C)C)NC(=O)[C@@H]3C[C@@H](O)CN3C(=O)[C@@H](C)NC(=O)[C@H](CO)NC(=O)[C@H]([C@@H](C)O)NC(=O)[C@H](C(C)C)NC(=O)[C@H](CCN)NC(=O)[C@H](Cc3c[nH]c4ccccc34)NC(=O)[C@H](CCN)NC(=O)[C@@H](CCN)NC2=O)[C@@H](C)O)CCNC(=O)[C@H]([C@@H](C)O)NC(=O)[C@H](CCN)NC(=O)[C@H](CCN)NC1=O [Ex. 88] (I: cyclo([Dab]E[dDab][Dab]W[Dab]VTS[dA][Hyp]LSY) / II: [Dab]T[Dab][Dab][Dab][dL]L[Dab][Dab]T; amide I:2-II:N; lactam II:4-II:C)	1
1	1	0.125	0.125	0.25	0.25	0.5	CC(C)C[C@@H]1NC(=O)[C@@H](CC(C)C)NC(=O)[C@H](CCN)NC(=O)[C@@H](NC(=O)[C@H](CCN)NC(=O)[C@@H](NC(=O)[C@H](CCN)N(C)C(=O)CC[C@@H]2NC(=O)[C@H](CCN)NC(=O)[C@H](Cc3ccc(O)cc3)NC(=O)[C@H](CO)NC(=O)[C@H](CC(C)C)NC(=O)[C@@H]3CCCN3C(=O)[C@H]3CCCN3C(=O)[C@H](CO)NC(=O)[C@H]([C@@H](C)O)NC(=O)[C@H](C(C)C)NC(=O)[C@H](CCN)NC(=O)[C@H](Cc3c[nH]c4ccccc34)NC(=O)[C@H](CCN)NC(=O)[C@@H](CCN)NC2=O)[C@@H](C)O)CCNC(=O)[C@H]([C@@H](C)O)NC(=O)[C@H](CCN)NC(=O)[C@H](CCN)NC1=O [Ex. 89] (I: cyclo(LSY[Dab]E[dDab][Dab]W[Dab]VTS[dP]P) / II: [NMeDab]T[Dab][Dab][Dab][dL]L[Dab][Dab]T; amide I:5-II:N; lactam II:4-II:C)	1
0.25	0.25	0.125	0.125	0.25	0.125	0.25	CC(C)C[C@@H]1NC(=O)[C@@H](CC(C)C)NC(=O)[C@H](CCN)NC(=O)[C@@H](NC(=O)[C@H](CCN)NC(=O)[C@@H](NC(=O)[C@H](CCN)NC(=O)CC[C@@H]2NC(=O)CNC(=O)[C@H](Cc3ccc(O)cc3)NC(=O)[C@H](CO)NC(=O)[C@H](CC(C)C)NC(=O)[C@@H]3CCCN3C(=O)[C@H]3CCCN3C(=O)[C@H](CO)NC(=O)[C@H]([C@@H](C)O)NC(=O)[C@H](C(C)C)NC(=O)[C@H](CCN)NC(=O)[C@H](Cc3c[nH]c4ccccc34)NC(=O)[C@H](CCN)NC(=O)[C@@H](CCN)NC2=O)[C@@H](C)O)CCNC(=O)[C@H]([C@@H](C)O)NC(=O)[C@H](CCN)NC(=O)[C@H](CCN)NC1=O [Ex. 90] (I: cyclo(LSYGE[dDab][Dab]W[Dab]VTS[dP]P) / II: [Dab]T[Dab][Dab][Dab][dL]L[Dab][Dab]T; amide I:5-II:N; lactam II:4-II:C)	1
0.5	0.5	0.125	0.25	0.5	0.125	1	CC(C)C[C@@H]1NC(=O)[C@@H](CC(C)C)NC(=O)[C@H](CCN)NC(=O)[C@@H](NC(=O)[C@H](CCN)NC(=O)[C@@H](NC(=O)[C@H](CCN)NC(=O)CC[C@@H]2NC(=O)[C@H](CCN)NC(=O)[C@H](Cc3ccc(O)cc3)NC(=O)[C@H]([C@@H](C)O)NC(=O)[C@H](CC(C)C)NC(=O)[C@@H]3CCCN3C(=O)[C@H]3CCCN3C(=O)[C@H](CO)NC(=O)[C@H]([C@@H](C)O)NC(=O)[C@H](C(C)C)NC(=O)[C@H](CCN)NC(=O)[C@H](Cc3c[nH]c4ccccc34)NC(=O)[C@H](CCN)NC(=O)[C@@H](CCN)NC2=O)[C@@H](C)O)CCNC(=O)[C@H]([C@@H](C)O)NC(=O)[C@H](CCN)NC(=O)[C@H](CCN)NC1=O [Ex. 91] (I: cyclo(LTY[Dab]E[dDab][Dab]W[Dab]VTS[dP]P) / II: [Dab]T[Dab][Dab][Dab][dL]L[Dab][Dab]T; amide I:5-II:N; lactam II:4-II:C)	1
0.5	0.5	0.125	0.25	0.25	0.25	0.5	CC(C)C[C@@H]1NC(=O)[C@@H](CC(C)C)NC(=O)[C@H](CCN)NC(=O)[C@@H](NC(=O)[C@H](CCN)NC(=O)[C@@H](NC(=O)[C@H](CCN)NC(=O)CC[C@@H]2NC(=O)[C@H](CCN)NC(=O)[C@H](Cc3ccc(O)cc3)NC(=O)[C@H](CO)NC(=O)[C@H](CC(C)C)NC(=O)[C@@H]3CCCN3C(=O)[C@H]3CCCN3C(=O)[C@H](CO)NC(=O)[C@H]([C@@H](C)O)NC(=O)[C@H](C(C)C)NC(=O)[C@H](CCN)NC(=O)[C@H](Cc3c[nH]c4ccccc34)NC(=O)[C@H](CCN)NC(=O)[C@@H](CCN)NC2=O)[C@@H](C)O)CCNC(=O)[C@H]([C@@H](C)O)NC(=O)[C@H](CCN)NC(=O)[C@H](CCN)NC1=O [Ex. 92] (I: cyclo(W[Dab]VTS[dP]PLSY[Dab]E[dDab][Dab]) / II: [Dab]T[Dab][Dab][Dab][dL]L[Dab][Dab]T; amide I:12-II:N; lactam II:4-II:C)	1
1	2	0.5	2	0.25	0.25	8	CC(C)C[C@@H]1NC(=O)[C@@H](CC(C)C)NC(=O)[C@H](CCN)NC(=O)[C@@H](NC(=O)[C@H](CCN)NC(=O)[C@@H](NC(=O)[C@H](CCN)NC(=O)CC[C@@H]2NC(=O)[C@H](CCN)NC(=O)[C@H](Cc3ccc(O)cc3)NC(=O)[C@H]([C@@H](C)O)NC(=O)[C@H](C(C)C)NC(=O)[C@@H]3C[C@@H](O)CN3C(=O)[C@H]3CCN3C(=O)[C@H](CO)NC(=O)[C@H](CO)NC(=O)[C@H](C(C)C)NC(=O)[C@H](CCN)NC(=O)[C@H](Cc3c[nH]c4ccccc34)NC(=O)[C@H](CCN)NC(=O)[C@@H](CCN)NC2=O)[C@@H](C)O)CCNC(=O)[C@H]([C@@H](C)O)NC(=O)[C@H](CCN)NC(=O)[C@H](CCN)NC1=O [Ex. 93] (I: cyclo([Dab]E[dDab][Dab]W[Dab]VSS[dAze][Hyp]VTY) / II: [Dab]T[Dab][Dab][Dab][dL]L[Dab][Dab]T; amide I:2-II:N; lactam II:4-II:C)	1
0.25	1	0.0625	0.0625	0.25	0.125	0.5	CC(C)C[C@@H]1NC(=O)[C@@H](CC(C)C)NC(=O)[C@H](CCN)NC(=O)[C@@H](NC(=O)[C@H](CCN)NC(=O)[C@@H](NC(=O)[C@H](CCN)NC(=O)CC[C@@H]2NC(=O)CNC(=O)[C@H](CCCN)NC(=O)[C@H](CCN)NC(=O)[C@H](Cc3ccc(O)cc3)NC(=O)[C@H](CO)NC(=O)[C@H](CC(C)C)NC(=O)[C@@H]3CCCN3C(=O)[C@H]3CCCN3C(=O)[C@H](CO)NC(=O)[C@H]([C@@H](C)O)NC(=O)[C@H](C(C)C)NC(=O)[C@H](CCN)NC(=O)[C@H](Cc3c[nH]c4ccccc34)NC2=O)[C@@H](C)O)CCNC(=O)[C@H]([C@@H](C)O)NC(=O)[C@H](CCN)NC(=O)[C@H](CCN)NC1=O [Ex. 94] (I: cyclo(LSY[Dab][Orn]GEW[Dab]VTS[dP]P) / II: [Dab]T[Dab][Dab][Dab][dL]L[Dab][Dab]T; amide I:7-II:N; lactam II:4-II:C)	1

Reference: patent US10829520B2, “Beta-hairpin peptidomimetics” (POLYPHOR AG, priority 2015, dated 2020)
